# Assay: Stability test: storage in nitrogen-filled sealed bottles, purity test by HPLC every month
# Type: physicochemical
# Settings: Table 1, stored at −20° C., 1 month
# Procedure: I. Preparation of samples
# 1. The products of Examples 1 to 4, Examples 10 to 13, and the comparative example were each dispensed into 13 bottles, each of 50 mg; and the bottles were filled with nitrogen and sealed. One of the bottles (initial sample) was first tested, and the remaining 12 bottles were divided into two groups (each with 6 bottles) and stored. The bottles in each group were numbered 1 to 6 according to a test sequence. The two groups of bottles were stored at 2° C. to 8° C. and −20° C., respectively; and one sample was tested every month.
# 2. The products of Examples 6 to 9 and Example 14 were each dispensed into 7 bottles, each of 50 mg; and the bottles were filled with nitrogen and sealed. One of the bottles (initial sample) was first tested, and the remaining 6 bottles were numbered 1 to 6 according to a test sequence and then stored at 2° C. to 8° C. One sample was tested every month.
# II. Preparation of test sample solutions
# One bottle of sample was taken at a time and prepared into a 5 mL or 10 mL solution using a 5 mL or 10 mL volumetric flask, and then the solution was filtered through a membrane to be ready for purity test by HPLC.
# Mobile phase: isocratic elution: 5% water (0.1% formic acid)+95% methanol (0.1% formic acid)
# Temperature and humidity: 23.0° C. and 54% RH
# Sample dissolution: dissolution by methanol
# Chromatographic column: ODS-2, 4.6 * 250 mm, 5 μm, and constant pressure: 12 Mpa to 13 Mpa
# Running time: ≥15 min IV.
row,SMILES,"purity by HPLC, Time (month) 1"
1,"NC(=O)c1ccc[n+]([C@@H]2O[C@H](CO)[C@@H](O)[C@H]2O)c1.[Cl-] [Comparative Example, chlorine salt of NR, reference compound]",98.284
2,"NC(=O)c1ccc[n+]([C@@H]2O[C@H](CO)[C@@H](O)[C@H]2O)c1.O=C(O)CC(O)(CC(=O)O)C(=O)[O-] [Example 1, citrate of NR (1:1)]",98.828

# Same assay, conditions: Table 1, stored at −20° C., 2 months
row,SMILES,"purity by HPLC, Time (month) 2"
1,"NC(=O)c1ccc[n+]([C@@H]2O[C@H](CO)[C@@H](O)[C@H]2O)c1.[Cl-] [Comparative Example, chlorine salt of NR, reference compound]",98.087
2,"NC(=O)c1ccc[n+]([C@@H]2O[C@H](CO)[C@@H](O)[C@H]2O)c1.O=C(O)CC(O)(CC(=O)O)C(=O)[O-] [Example 1, citrate of NR (1:1)]",98.450

# Same assay, conditions: Table 1, stored at −20° C., 3 months
row,SMILES,"purity by HPLC, Time (month) 3"
1,"NC(=O)c1ccc[n+]([C@@H]2O[C@H](CO)[C@@H](O)[C@H]2O)c1.[Cl-] [Comparative Example, chlorine salt of NR, reference compound]",97.701
2,"NC(=O)c1ccc[n+]([C@@H]2O[C@H](CO)[C@@H](O)[C@H]2O)c1.O=C(O)CC(O)(CC(=O)O)C(=O)[O-] [Example 1, citrate of NR (1:1)]",98.190

# Same assay, conditions: Table 1, stored at −20° C., 4 months
row,SMILES,"purity by HPLC, Time (month) 4"
1,"NC(=O)c1ccc[n+]([C@@H]2O[C@H](CO)[C@@H](O)[C@H]2O)c1.[Cl-] [Comparative Example, chlorine salt of NR, reference compound]",97.449
2,"NC(=O)c1ccc[n+]([C@@H]2O[C@H](CO)[C@@H](O)[C@H]2O)c1.O=C(O)CC(O)(CC(=O)O)C(=O)[O-] [Example 1, citrate of NR (1:1)]",98.252

# Same assay, conditions: Table 1, stored at −20° C., 5 months
row,SMILES,"purity by HPLC, Time (month) 5"
1,"NC(=O)c1ccc[n+]([C@@H]2O[C@H](CO)[C@@H](O)[C@H]2O)c1.[Cl-] [Comparative Example, chlorine salt of NR, reference compound]",97.575
2,"NC(=O)c1ccc[n+]([C@@H]2O[C@H](CO)[C@@H](O)[C@H]2O)c1.O=C(O)CC(O)(CC(=O)O)C(=O)[O-] [Example 1, citrate of NR (1:1)]",97.978

# Same assay, conditions: Table 1, stored at −20° C., 6 months
row,SMILES,"purity by HPLC, Time (month) 6"
1,"NC(=O)c1ccc[n+]([C@@H]2O[C@H](CO)[C@@H](O)[C@H]2O)c1.[Cl-] [Comparative Example, chlorine salt of NR, reference compound]",97.210
2,"NC(=O)c1ccc[n+]([C@@H]2O[C@H](CO)[C@@H](O)[C@H]2O)c1.O=C(O)CC(O)(CC(=O)O)C(=O)[O-] [Example 1, citrate of NR (1:1)]",97.814

# Same assay, conditions: Table 1, stored at −20° C., over 6 months
row,SMILES,Decomposition rate [%]
1,"NC(=O)c1ccc[n+]([C@@H]2O[C@H](CO)[C@@H](O)[C@H]2O)c1.[Cl-] [Comparative Example, chlorine salt of NR, reference compound]",1.33
2,"NC(=O)c1ccc[n+]([C@@H]2O[C@H](CO)[C@@H](O)[C@H]2O)c1.O=C(O)CC(O)(CC(=O)O)C(=O)[O-] [Example 1, citrate of NR (1:1)]",1.13

# Same assay, conditions: Table 1, −20° C., initial sample (0 month)
row,SMILES,"purity by HPLC, Time (month) 0"
1,"NC(=O)c1ccc[n+]([C@@H]2O[C@H](CO)[C@@H](O)[C@H]2O)c1.[Cl-] [Comparative Example, chlorine salt of NR, reference compound]",98.525
2,"NC(=O)c1ccc[n+]([C@@H]2O[C@H](CO)[C@@H](O)[C@H]2O)c1.O=C(O)CC(O)(CC(=O)O)C(=O)[O-] [Example 1, citrate of NR (1:1)]",98.930

# Same assay, conditions: Table 2, 2° C. to 8° C., initial sample (0 month)
row,SMILES,"purity by HPLC, Time (month) 0"
1,"NC(=O)c1ccc[n+]([C@@H]2O[C@H](CO)[C@@H](O)[C@H]2O)c1.[Cl-] [Comparative Example, chlorine salt of NR, reference compound]",98.525
2,"NC(=O)c1ccc[n+]([C@@H]2O[C@H](CO)[C@@H](O)[C@H]2O)c1.O=C(O)CC(O)(CC(=O)O)C(=O)[O-] [Example 1, citrate of NR (1:1)]",98.930

# Same assay, conditions: Table 2, stored at 2° C. to 8° C., 1 month
row,SMILES,"purity by HPLC, Time (month) 1"
1,"NC(=O)c1ccc[n+]([C@@H]2O[C@H](CO)[C@@H](O)[C@H]2O)c1.[Cl-] [Comparative Example, chlorine salt of NR, reference compound]",98.171
2,"NC(=O)c1ccc[n+]([C@@H]2O[C@H](CO)[C@@H](O)[C@H]2O)c1.O=C(O)CC(O)(CC(=O)O)C(=O)[O-] [Example 1, citrate of NR (1:1)]",98.198

# Same assay, conditions: Table 2, stored at 2° C. to 8° C., 2 months
row,SMILES,"purity by HPLC, Time (month) 2"
1,"NC(=O)c1ccc[n+]([C@@H]2O[C@H](CO)[C@@H](O)[C@H]2O)c1.[Cl-] [Comparative Example, chlorine salt of NR, reference compound]",98.206
2,"NC(=O)c1ccc[n+]([C@@H]2O[C@H](CO)[C@@H](O)[C@H]2O)c1.O=C(O)CC(O)(CC(=O)O)C(=O)[O-] [Example 1, citrate of NR (1:1)]",98.409

# Same assay, conditions: Table 2, stored at 2° C. to 8° C., 3 months
row,SMILES,"purity by HPLC, Time (month) 3"
1,"NC(=O)c1ccc[n+]([C@@H]2O[C@H](CO)[C@@H](O)[C@H]2O)c1.[Cl-] [Comparative Example, chlorine salt of NR, reference compound]",97.540
2,"NC(=O)c1ccc[n+]([C@@H]2O[C@H](CO)[C@@H](O)[C@H]2O)c1.O=C(O)CC(O)(CC(=O)O)C(=O)[O-] [Example 1, citrate of NR (1:1)]",98.171

# Same assay, conditions: Table 2, stored at 2° C. to 8° C., 4 months
row,SMILES,"purity by HPLC, Time (month) 4"
1,"NC(=O)c1ccc[n+]([C@@H]2O[C@H](CO)[C@@H](O)[C@H]2O)c1.[Cl-] [Comparative Example, chlorine salt of NR, reference compound]",97.612
2,"NC(=O)c1ccc[n+]([C@@H]2O[C@H](CO)[C@@H](O)[C@H]2O)c1.O=C(O)CC(O)(CC(=O)O)C(=O)[O-] [Example 1, citrate of NR (1:1)]",97.957

# Same assay, conditions: Table 2, stored at 2° C. to 8° C., 5 months
row,SMILES,"purity by HPLC, Time (month) 5"
1,"NC(=O)c1ccc[n+]([C@@H]2O[C@H](CO)[C@@H](O)[C@H]2O)c1.[Cl-] [Comparative Example, chlorine salt of NR, reference compound]",97.384
2,"NC(=O)c1ccc[n+]([C@@H]2O[C@H](CO)[C@@H](O)[C@H]2O)c1.O=C(O)CC(O)(CC(=O)O)C(=O)[O-] [Example 1, citrate of NR (1:1)]",97.823

# Same assay, conditions: Table 2, stored at 2° C. to 8° C., 6 months
row,SMILES,"purity by HPLC, Time (month) 6"
1,"NC(=O)c1ccc[n+]([C@@H]2O[C@H](CO)[C@@H](O)[C@H]2O)c1.[Cl-] [Comparative Example, chlorine salt of NR, reference compound]",97.109
2,"NC(=O)c1ccc[n+]([C@@H]2O[C@H](CO)[C@@H](O)[C@H]2O)c1.O=C(O)CC(O)(CC(=O)O)C(=O)[O-] [Example 1, citrate of NR (1:1)]",97.670

# Same assay, conditions: Table 2, stored at 2° C. to 8° C., over 6 months
row,SMILES,Decomposition rate [%]
1,"NC(=O)c1ccc[n+]([C@@H]2O[C@H](CO)[C@@H](O)[C@H]2O)c1.[Cl-] [Comparative Example, chlorine salt of NR, reference compound]",1.44
2,"NC(=O)c1ccc[n+]([C@@H]2O[C@H](CO)[C@@H](O)[C@H]2O)c1.O=C(O)CC(O)(CC(=O)O)C(=O)[O-] [Example 1, citrate of NR (1:1)]",1.27
